# Where no end group is shown, it is not given here.
# How the values were obtained:
# [1] = system: mesenchymal stromal cells (MSCs); test: OVA-AF647 intracellular delivery, flow cytometry; assay type: cell-based; conditions: OVA-AF647 mixed with 45 μM conjugate, nine hours, vs cargo alone
# Procedure: Mesenchymal stromal cells (MSCs) were incubated with either unconjugated fluorescently labeled OVA-AF647 alone or mixed with 45 μM of CA-HnRPA1 NLS steroid acid-peptide for nine hours and then intracellular OVA-AF647 delivery was assessed by flow cytometry as described in Example 1. […] The experiment was repeated with DQ™ OVA as cargo to evaluate the intracellular fate of the cargo delivered upon coincubation with CA-HnRPA1 NLS, as described in Example 4.
# [2] = system: cross-presenting mesenchymal stromal cell line (cpMSC); test: Antigen-presentation assay using the B3Z reporter system, cross-presenting MSC line; assay type: cell-based; conditions: cpMSCs, OVA admixed, vs OVA alone or OVA mixed with CA-SV40NLS
# Procedure: Various bile acid-NLS conjugates were screened using the B3Z reporter system. The B3Z cell line is a T-cell hybridoma specific for the H2-K^b-[…] complex. Once activated via its TCR, the LacZ reporter gene (under the NFAT promoter control) is expressed. Briefly, 1.5×10^5 BMDCs or 2.5×10^5 MSCs were co-cultured with 5×10^4 B3Z cells treated with the mixing conditions of ovalbumin (OVA) and bile acid-NLS conjugates for overnight at 37° C. with 5% CO2. The following day, all cells were washed twice with PBS (pH 7.4), and the cell pellets were lysed by adding 100 μL of a lysis buffer containing 0.15 mM chlorophenol red-beta-D-galactopyranoside (CPRG) substrate (Calbiochem, La Jolla, CA), 0.125% NP40 (EMD Sciences, La Jolla, CA), 9 mM MgCl2 (Aldrich, USA) and 100 mM 2-mercaptoethanol in PBS. After a 5- or 24-h incubation at 37° C., absorbance was taken at 570 nm with 636 nm as the reference wavelength. For these experiments, OVA was re-suspended in PBS (pH 7.3) at 5-10 mg/mL. The different bile acid-NLS conjugates were re-suspended in H2O at 10 mg/mL. Bile acid-NLS conjugate: antigen mixtures were prepared at different molar ratios according to Table 1.
# Further variants of CA-SV40NLS were synthesized in which the SV40NLS peptide was replaced with peptides comprising other NLS's (Table 5) and the antigen presentation activities of the CA-NLS peptide conjugates were evaluated using the B3Z reporter system as described in Example 1. The following conjugate: antigen molar ratios were tested for each conjugate: 2:1, 4:1, 8:1, 12:1 and 22:1. The results in FIGS. 12-15 compare the antigen presentation activities of different conjugates at the conjugate: antigen ratio that yielded the highest B3Z response (OD570) for that conjugate.
# [3] = system: cpMSCs; test: OVA-AF647 internalization in cpMSCs, flow cytometry; assay type: cell-based; conditions: various molar ratios
# Procedure: For this experiment, a cross-presenting mesenchymal stromal cell line (cpMSC) was used as the antigen presenting cells, which were pulsed with the OVA cargo labelled with Alexa Fluor 647 (i.e., OVA^647)^TM. OVA^647 fluorescence was measured by flow cytometry. Different ratios of CA (NLS1 RPS17 [FIG. 16A]; NLS3 RPS17 [FIG. 16B]; and PQBP-1 [FIG. 16C] to antigen (CA: OVA=22:1, 12:1, 8:1, 4:1, and 2:1) were tested (hnRNPA1 M9 NLS at 2:1).
# To further dissect the effect of bile acid peptide conjugates on antigen presentation, antigen internalization and processing were evaluated. cpMSCs were pulsed with OVA-labelled with AF647 in the presence of various molar ratios of different bile acid peptide conjugates, NLS1-RPS17 [FIG. 16A]; NLS3 RPS17 [FIG. 16B]; PQBP-1 [FIG. 16C]; and hnRNPA1 M9 NLS [FIG. 6]) and fluorescence was assessed by flow cytometry. […] OVA processing was assessed by pulsing cpMSCs with DQ™-Ovalbumin (OVA-DQ) in the presence of the same bile acid peptide conjugates as in FIGS. 6 and 16.
# [4] = system: WT MSCs; test: OVA-DQ processing by WT MSCs; assay type: cell-based, mouse; conditions: OVA-DQ admixed with CA-hnRNPA1
# Procedure: To evaluate OVA uptake, MSCs were first treated with […] of OVA-AF647 admixed with CA-hnRNPA1 for 1 hour at 37° C. then assessed for their fluorescence intensity by flow-cytometry. To evaluate antigen processing, MSCs were incubated with 10 µg/mL OVA-DQ® admixed with A1 at 37° C. Half an hour later, cells were washed, and regular media added. At the end of the indicated incubation time, cells were collected and washed with cold PBS containing 2% FBS. Fluorescence was monitored by flow cytometry.
# [5] = system: WT MSCs; test: Flow cytometry of H2-Kb and I-Ab expression; assay type: cell-based, mouse; conditions: WT MSCs treated with CA-hnRNPA1
# Text: FIG. 18A and FIG. 18B show the results of antigen cross-presentation assay conducted using CA-hnRNPA1 admixed with OVA compared to controls and CA-SV40. […] For FIGS. 18B, 18E and 18F, n=6/group with *P<0.05, **P<0.01 and ***P<0.001.
# FIG. 18G and FIG. 18H show the increase in H2-Kb and I-Ab expression in WT MSCs treated with CA-hnRNPA1, respectively.
# [6] = system: MSCs; test: Flow cytometry assessment of ROS production; assay type: cell-based, mouse; conditions: WT MSCs
# Text: Dp44mt was used as a positive control. […] For FIGS. 19A-19C, n=6/group with *P<0.05, **P<0.01 and ***P<0.001.
# Next, the mechanism involved in cross presentation enhancement of steroid acid-peptide conjugates was further dissected.
# [7] = system: MSCs; test: Endosomal escape, apoptosis assay with recombinant cytochrome C; assay type: cell-based, mouse; conditions: CA-hnRNPA1 50 μM, 6 h
# Procedure: Endosomal leakage was assessed using an apoptosis assay. Briefly, 10′ MSCs were first supplemented with 10 mg/mL of exogenous rCyt-C for 6 h at 37° C. in the presence or absence of CA-hnRNPA1 (50 μM). Once the incubation period completed, the cells were collected using Accutase®, washed with ice cold PBS, then stained for Annexin-V according to manufacturer's instructions prior to analysis using BD FACS Diva™ on CANTOII™.
# [8] = system: human WT MSCs; test: OVA uptake by human MSCs, flow cytometry; assay type: cell-based; conditions: CA-hnRNPA1-treated human MSCs
substance,measurement,setting,value
"CA-hnRNPA1: cholic acid conjugated to hnRNPA1 M9 NLS peptide CSNFGPMKGGNFGGRSSGPY (SEQ ID NO: 4) (not fully specified (N-terminus); also: cholic acid conjugate, site not given here)",intracellular OVA-AF647 cargo delivery,[1]; listed as CA-HnRPA1,increased intracellular cargo delivery
same,intracellular OVA-AF647 cargo delivery,[1]; listed as CA-hnRPA1 M9 NLS,increased intracellular delivery
same,antigen-presentation activity of cholic acid-NLS peptide conjugates (B3Z response),[2],amongst the best enhancers of cross presentation
same,antigen-presentation activity of cholic acid-NLS peptide conjugates (B3Z response),[2]; listed as CA-hnRNPA1 M9 NLS,highly enhance cross presentation
same,OVA internalization (OVA-AF647 fluorescence),[3],enhance OVA internalization
same,OVA processing by WT MSCs,[4],increase in OVA processing
same,I-Ab expression,[5],increase
same,ROS production by MSCs,[6],increase in ROS production
same,endosomal membrane damage (co-treatment with recombinant cytochrome C),[7],endosomal membrane damaging properties
same,OVA uptake by human MSCs,[8],increase of OVA uptake
